This assay deals with T1, Epac1-camps-His6 (Homo sapiens, UniProt O95398).
T1 construct: made in house; host or cells: E. coli BL21(DE3)-CodonPlus-RIL / BL21(DE3)-pLysS, pET11a
T1 sequence (O95398 199-357 limits assumed): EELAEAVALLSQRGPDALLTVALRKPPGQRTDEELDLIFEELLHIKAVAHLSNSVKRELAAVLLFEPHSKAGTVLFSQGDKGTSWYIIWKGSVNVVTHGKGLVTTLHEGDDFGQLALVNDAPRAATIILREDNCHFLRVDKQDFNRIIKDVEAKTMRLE
In words: cell-free FRET assay with purified Epac1-camps-His6 in 96 multi-well plates (EYFP/ECFP ratio R/R0). The format is biochemical. The settings on record: 96 MWP, plate reader.

Structures are written as SMILES.

Method: To assess the functionality of the purified Epac1-camps-His6 protein, the protein was diluted to 0.7 μM and 90 μl of this solution was added to each well of a 96 multi well plate (MWP). Fluorescence emission in each well was measured in a plate reader. Excitation was at 430 nm and emission was recorded at 475 nm (ECFP) and 530 nm (EYFP). […] The final volume in each well was 100 μl, and final concentrations of cyclic nucleotides ranged from 10^− 9 - 10^− 4 M. Incubation of the sensor protein with its ligands was for 30 min. at room temperature. […] Normalized data were plotted against cyclic nucleotide concentrations and EC50 values were calculated. […] Mean values with standard deviations were obtained from four-fold determinations for each cyclic nucleotide.
Purified Epac1-camps-His6 protein was diluted to a concentration of 0.7 μM in IS buffer and 90 μl of the sample was added to each well of a 96 multi well plate. Excitation was at 430 nm and emission was recorded at 475 nm (ECFP) and 530 nm (EYFP). […] The final volume was 100 μl and final concentrations of cyclic nucleotides ranged from 10^− 9 - 10^− 4 M. The EYFP/ECFP ratio (R) for each well was calculated and normalized to the ratio of the basal fluorescence in the absence of cyclic nucleotides (R0). […] EC50 values were calculated with a four-parameter nonlinear regression using GraphPad Prism v5.04 […]

In general, EC50 refers to the concentration that produces a half-maximal response. Take `Nc1nc2c(ncn2[C@@H]2O[C@@H]3COP(=O)(O)O[C@H]3[C@H]2O)c(=O)[nH]1` [cGMP, cyclic guanosine 3′,5′-monophosphate]: the EC50 was determined as 7.8 µM.

The values above are taken from PMC7450941, “Establishing a sensitive fluorescence-based quantification method for cyclic nucleotides” (BMC Biotechnology, 2020).
